# How the values were obtained:
# calf-thymus DNA (CT-DNA) = assay: Isothermal titration calorimetry (ITC) binding to CT-DNA; settings: for ΔG / ΔH / −TΔS: Tris-HCl buffer pH=7.4, 25° C; for N [bp]: one set of site binding model
# Protocol: Relative binding affinity of complexes 1, 2, and 3 towards calf-thymus DNA (CT-DNA) were evaluated using isothermal titration calorimetry (ITC) (FIG. 20). Association constants and thermodynamic parameters (Table 4) clearly reveal that the binding affinities for complexes 1 and 2
# ITC experiments were performed with the Microcal iTC200. CT-DNA (0.1 mmol) and complexes 1 (5 mmol), 2 (5 mmol) and 3 (5 mmol) were used for these experiments. All titrations were conducted in Tris-HCl buffer (5 mmol Tris and 25 mmol NaCl), pH=7.4 at 25° C. In each titration CT-DNA was loaded into the cell and 1 or 2 or 3 were taken into the syringe. Aliquot of 2 μL of compounds were injected into the cell containing DNA. In each experiment, the raw isotherms were corrected for heat of dilution by subtracting the isotherms representing the compounds injected into the Tris-HCl buffer. The resulting isotherms were fitted with the one set of site binding model provided with Microcal iTC200. (Refer FIG. 21)
# [1] = Partition coefficient (log P), shake-flask method, n-octanol/water; settings: for log P: values of text and unnumbered table; for LogP: values of Table 2
# Protocol: Partition coefficients (log P) for these three complexes were evaluated by shake-flask method and these were correlated to the lipophilicity of respective complexes.
# n-Octanol saturated water and water saturated octanol was obtained using Millipore water stirred with n-octanol for 24 h before the two layers were separated by centrifugation (3000 rpm, 5 min). The chloride salts of complex 1 and 2 were dissolved in n-octanol saturated water giving concentrations ranging from 0.5 to 3.0 mmol. This was then mixed with water saturated n-octanol in the ratio of 1:1 (v/v). Resulting solvent mixtures were vertexed for 30 min at room temperature, and then were subjected to centrifugation (3000 rpm, 5 min) to get two distinct separate layers. Samples from each layer were obtained using a fine-gauge needle and the absorbance of respective complex in each phase determined using UV-Vis spectroscopy.
# MCF-7 cell line = assay: Cellular uptake and quantification of Ru by MP-AES; type: cell-based; settings: MCF-7, 50 μM, 24 h, 37° C
# Protocol: Cellular accumulation studies for complexes 1, 2, and 3 were conducted on the MCF-7 cell line. Briefly, 2.5×10^5-1×10^6 cells were seeded on a petridish; the metal complexes were then added to give final concentrations of 50 μM and allowed a further 24 h of drug exposure at 37° C. After this time, cells were treated with trypsin, counted using haemocytometer, and cells collected were digested overnight in concentrated nitric acid (73%) at 60° C.; Samples were made up to exactly 10 mL using deionized water and the amount of ruthenium taken up by the cells was estimated by MP-AES (Microwave Plasma Atomic Emission Spectroscopy), using an Agilent Technologies instrument (Model No: 4100 MP-AES). The solvent used for all MP-AES experiments was double deionized water (DDW). The concentrations used for the calibration curve were in all cases 0, 5, 7.5, 10 ppm. The isotope detected was ^101Ru; readings were made in duplicate (N2 gas mode).
# live MCF-7 cells = assay: CLSM imaging of live cells, co-staining with ER-Tracker Green; type: cell-based; settings: live MCF-7, 50 μM, 37° C
# Protocol: In the light of the negligible toxicity towards MCF-7 cells, the application of the above complexes as potential as imaging agents was explored in live MCF-7 cells by incubating the cells separately with 50 μM of 1, 2, and 3 at 37° C.
# PFA fixed MCF-7 cells = assay: CLSM imaging of fixed cells, co-staining with DAPI; type: cell-based; settings: fixed MCF-7, excitation 442 nm, emission 620 nm
# Protocol: In another embodiment, co-staining experiments were performed with DAPI, a commonly used commercial nuclear staining agent.
# To ensure that DAPI had no influence in internalization of the complexes 1 and 2, identical experiments with fixed MCF-7 cells in absence of DAPI were performed (FIG. 22 c) and a distinct red emission were observed from the nucleus. Luminescence intensity profile plots confirmed that the emission was actually from the nucleus.
# MCF-7 and HEK293T cells were cultured in DMEM respectively supplemented with 10% FBS and penicillin/streptomycin. Cell lines were maintained at 37° C. in an atmosphere of 5% CO2 and routinely sub-cultured. For CLSM, cell cultures were grown on 6 well plate with coverslips, after 24 hrs of incubation the cells were treated with solutions of 1 or 2 (20 μM,) in serum containing media and incubated for 2 h. After incubation media was removed and cells were washed with 1×PBS buffer and fixed them using paraformaldehyde and stained for confocal microscopy. Nuclear staining was performed by using DAPI. Olympus Fluoview was used to observe the compound staining Compound was excited at 443 nm and emission was detected at 620 nm wavelength.
# DAPI was excited by using a 405 nm diode laser and emission detected with a 420-480 nm long-pass band-filter. (FIG. 14, 15, 16, 17)
# [2] = Fluorescence quantum yield and luminescence lifetime (TCSPC) in water; type: physicochemical; settings: pure aqueous medium; for τ (luminescence lifetime): excitation 443 nm; for Φf (fluorescence quantum yield): reference Ru(bpy)3Cl2
# Text: UV-Vis spectra were obtained by using a Cary 500 scan UV-Vis-NIR spectrometer. Room temperature emission spectrum was obtained using an Edinburgh instrument Xe-900 spectro fluorometer. The fluorescence quantum yields, Φf were estimated by using equation 1 in water medium using the integrated emission intensity of Ru(bpy)3Cl2 (Φf=0.042 in H2O at RT) as a reference. (FIG. 20)
# Luminescent lifetimes were obtained using a Horiba TCSPC (Time Correlated Single Photon Counting) system exciting at 443 nm. 10,000 counts were collected for each lifetime measurement and all measurements were performed in triplicate using DAS software to confirm results. The calculation of the luminescent lifetimes was performed by fitting an exponential decay function to each decay plot to extract the lifetime information using DAS6 fluorescence decay analysis software (FIG. 2).
# [3] = Photostability under continuous irradiation by confocal microscopy; type: physicochemical; settings: for reduction of fluorescence intensity upon irradiation: fixed MCF-7, exposure at 442 nm for 300 sec
# Text: In yet another embodiment, photostability of these two complexes 1 & 2 compared with that for DAPI dye by using confocal microscopy.
# [4] = system: nuclear DNA of fixed MCF-7 cells; assay: DNase I / RNase A digest experiments (CLSM); type: cell-based; settings: fixed MCF-7 cells pre-treated with DNase I
# Protocol: Further, in order to check the preferential binding of these two reagents to nuclear DNA, deoxyribonuclease (DNase I) and ribonuclease (RNase A) digest experiments were carried out. DNase I is an enzyme that catalyzes the hydrolytic cleavage of phosphodiester linkages in the DNA and RNase A is a type of nuclease that catalyzes the degradation of RNA into smaller components. DAPI was used for control experiments.
Compound,ΔG (calf-thymus DNA (CT-DNA)) [Kcal/M^−1],ΔH (calf-thymus DNA (CT-DNA)) [Kcal/M^−1],−TΔS (calf-thymus DNA (CT-DNA)) [Kcal/M^−1l],N [bp] (calf-thymus DNA (CT-DNA)),log P [1],Ru accumulation (MCF-7 cell line) [ppm/10^6 cells],extent of cellular uptake (live MCF-7 cells),intracellular localisation of emission in live cells (live MCF-7 cells),staining of fixed cells (PFA fixed MCF-7 cells),τ (luminescence lifetime) [2] [ns],Φf (fluorescence quantum yield) [2],"fluorescence intensity upon continuous irradiation ([3]; fixed MCF-7, at 359 nm for 300 sec)",LogP [1],intracellular fluorescence intensity from the nucleus after DNase I pre-treatment [4],reduction of fluorescence intensity upon irradiation [3] [%],water solubility (Water solubility)
"Cc1ccnc(-c2cc(C)ccn2)c1.F[P-](F)(F)(F)(F)F.F[P-](F)(F)(F)(F)F.[Ru+2].c1ccc(-c2ccccn2)nc1.c1ccc(-c2ccccn2)nc1 [Complex 3, [Ru(bpy)2(L3)]2+, reference compound]",−4.52 ± 0.25,0.51 ± 0.25,5.03,0.354 ± 0.14,−1.1,0.8,less as compared to the complexes 1 and 2,did not show any such specificity towards lipid dense regions,non-specific staining of cellular compartments,321,0.05,–,–,–,–,–
"N=C(N)c1ccc(-c2cc3ccc(C(=N)N)cc3[nH]2)cc1 [DAPI, 4′,6-diamidino-2-phenylindole, reference compound]",–,–,–,–,–,–,–,–,–,–,–,drastically reduced,–,–,–,–
"{bis-(2,2′-bpy)-(1-((4′-methyl-[2,2′-bipyridin]-4-yl)methyl)pyrimidine-2,4(1H,3H)-dione)}ruthenium(II) dichloride [Complex 2]",−6.00 ± 0.02,1.47 ± 0.02,7.47,0.98 ± 0.01,–,2.3,–,exactly superimposed with those for ER-Tracker™ Green,as efficient as DAPI in staining the nucleus,323,0.050,–,−1.59 ± 0.09,significantly reduced,~20,highly water soluble
"{bis-(2,2′-bpy)-(5-fluoro-1-((4′-methyl-[2,2′-bipyridin]-4-yl)methyl)pyrimidine-2,4(1H,3H)-dione)}ruthenium(II) dichloride [Complex 1]",−6.68 ± 0.41,−35.5 ± 0.41,–,0.61 ± 0.0,−0.85,1.5,–,exactly superimposed with those for ER-Tracker™ Green,as efficient as DAPI in staining the nucleus,336,0.048,–,−0.99 ± 0.05,significantly reduced,~20,highly water soluble
